Experimental findings from patent US11267794B2, “Benzothia(di)azepine compounds and their use as bile acid modulators” (Albireo AB, priority 2019, dated 2022) are described below.

One data set deals with T1, hIBAT (Homo sapiens, UniProt Q12908).
T1 construct: expressed in transfected cells; kept under Puromycin selection
T1 sequence (Q12908 1-348): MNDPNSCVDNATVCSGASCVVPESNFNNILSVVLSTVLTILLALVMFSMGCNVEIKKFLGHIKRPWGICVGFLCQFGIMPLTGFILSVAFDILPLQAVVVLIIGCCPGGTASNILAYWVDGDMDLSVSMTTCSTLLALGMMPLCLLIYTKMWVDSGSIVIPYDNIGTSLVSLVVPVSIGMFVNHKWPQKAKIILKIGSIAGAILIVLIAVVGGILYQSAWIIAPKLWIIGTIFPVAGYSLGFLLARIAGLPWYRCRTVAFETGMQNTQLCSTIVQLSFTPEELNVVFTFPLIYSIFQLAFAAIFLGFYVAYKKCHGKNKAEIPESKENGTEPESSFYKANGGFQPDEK
Description: IBAT (h/m) assay, 3H-taurocholic acid uptake in human IBAT-overexpressing cells. It counts as cell-based. To be noted: 0.25 μM 3H-taurocholic acid and 5 μM cold taurocholic acid, 20 minutes. The procedure:
10,000 cells (Human or Mouse IBAT-overexpressing cells) were seeded in 96-wells plate (Corning CLS3809) in 200 μL MEM-alpha medium (Gibco 12571-063) supplemented with 10% FBS (Gibco 10438026) containing Puromycin (Gibco A1113803) (10 μg/mL) and incubated at 37° C. in 5% CO2 for 48 hours. After incubation, media was decanted from the wells and cells were washed two times with 300 μL of basal MEM-alpha medium (FBS-free). After decanting basal MEM-alpha medium each time, plates were tapped against paper towel to ensure maximum removal of residual media. Test inhibitor dilutions (highest test concentration being 10 μM, 3-fold serial dilution, 10 points) prepared in DMSO (Sigma D2650) were added in incubation mix (maintaining 0.2% final DMSO concentration) containing 0.25 μM 3H-taurocholic acid (ARC ART-1368) and 5 μM of cold taurocholic acid (Sigma T4009). 50 μL of incubation mix containing test inhibitors was then added to the wells (in duplicate) and the plates were incubated for 20 minutes in a CO2 incubator at 37° C. After incubation, the reaction was stopped by keeping the plates on ice water mix for 2-3 minutes and then the incubation mix was aspirated completely from the wells. The wells were washed two times with 250 μL of chilled unlabelled 1 mM taurocholic acid dissolved in HEPES (Gibco 15630080)-buffered (10 mM) HBSS (Gibco 14175079) (pH 7.4). The plates were tapped against a paper towel after every wash to ensure maximum removal of blocking buffer.
100 μL of MicroScint-20 (PerkinElmer 6013621) was added to the wells and kept overnight at room temperature before reading the plates in TopCount NXT™ Microplate Scintillation and Luminescence Counter from PerkinElmer under 3H Test protocol (set at 120 seconds reading time per well).
(§1) All test compounds were provided in powder form at room temperature. 10 mM DMSO stocks of the test compounds were prepared, aliquoted and stored at −20° C. From the 10 mM DMSO stock of the compounds, a 3-fold serial dilution in DMSO was prepared to get a total of 10 dilutions of the test compounds. 0.5 μL of this dilution in DMSO was added to 250 μL of FBS-free basal media containing 3H-taurocholic acid and cold taurocholic acid to prepare the incubation mixture.

Another data set addresses T2, hLBAT (Homo sapiens, UniProt Q14973).
T2 construct: expressed in transfected cells; kept under Geneticin selection
T2 sequence (Q14973 1-349): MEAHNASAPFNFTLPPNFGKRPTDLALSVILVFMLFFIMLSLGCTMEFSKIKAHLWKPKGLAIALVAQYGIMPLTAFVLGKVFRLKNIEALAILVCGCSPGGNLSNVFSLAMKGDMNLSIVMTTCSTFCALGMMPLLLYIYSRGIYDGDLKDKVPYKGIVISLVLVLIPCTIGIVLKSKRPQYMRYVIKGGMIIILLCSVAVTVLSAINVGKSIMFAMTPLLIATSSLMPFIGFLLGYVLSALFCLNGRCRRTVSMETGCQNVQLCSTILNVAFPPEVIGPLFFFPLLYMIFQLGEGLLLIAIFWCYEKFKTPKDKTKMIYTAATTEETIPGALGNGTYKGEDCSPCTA
Description: LBAT (h/m) assay, 3H-taurocholic acid uptake in human LBAT-overexpressing cells. It counts as cell-based. Conditions: 0.3 μM 3H-taurocholic acid and 7.5 μM cold taurocholic acid, 20 minutes. The procedure:
20,000 cells (Human or Mouse LBAT-overexpressing cells) were seeded in 96-wells plate (Corning CLS3809) in 100 μL MEM-alpha medium (Gibco 12571-063) supplemented with 10% FBS (Gibco 10438026) containing Geneticin (Gibco 10131-027) (1 mg/mL) and incubated at 37° C. in 5% CO2 for 24 hours. After incubation, media was decanted from the wells and cells were washed two times with 300 μL of basal MEM-alpha medium (FBS-free). After decanting basal MEM-alpha medium each time, plates were tapped against paper towel to ensure maximum removal of residual media. For human LBAT, incubation mix was prepared by adding test inhibitor dilutions (3-fold serial dilution in DMSO (Sigma D2650), 10 points) in MEM-alpha (without FBS) containing 0.3 μM 3H-taurocholic acid (ARC ART-1368) and 7.5 μM cold taurocholic acid (Sigma T4009) (maintaining 0.2% final DMSO concentration). For mouse LBAT, incubation mix was prepared by adding test inhibitor dilutions (3-fold serial dilution in DMSO, 10 points) in MEM-alpha (without FBS) containing 0.3 μM 3H-taurocholic acid and 25 μM cold taurocholic acid maintaining 0.2% final DMSO concentration). 50 μL of incubation mix containing test inhibitors was then added to the wells (in duplicate) and the plates were incubated for 20 minutes in a CO2 incubator at 37° C. After incubation, the reaction was stopped by keeping the plates on ice water mix for 2-3 minutes and then the incubation mix was aspirated completely from the wells. The wells were washed two times with 250 μL of chilled unlabelled 1 mM taurocholic acid dissolved in HEPES (Gibco 15630080)-buffered (10 mM) HBSS (Gibco 14175079) (pH 7.4). The plates were tapped against a paper towel after every wash to ensure maximum removal of blocking buffer.
100 μL of MicroScint-20 (PerkinElmer 6013621) was added to the wells and kept overnight at room temperature before reading the plates in TopCount NXT™ Microplate Scintillation and Luminescence Counter from PerkinElmer under 3H Test protocol (set at 120 seconds reading time per well, with normal plate orientation).
as §1

The nature of data set [1]: Bidirectional permeability assay (Caco-2 cells). Conditions: human, Caco-2.
Description: Caco-2 cells (Evotec) were seeded at a density of 70,000 cells/well in Millicell® 24-well cell culture insert plates and maintained in an incubator (37° C., 5% CO2, 95% RH) for 21 days with media change on alternate days.
Stock solutions (10 mM) of the test compounds, atenolol (low permeability marker), propranolol (high permeability marker) and digoxin (substrate for P-gp transport pathway) were prepared in dimethylsulfoxide (DMSO). An intermediate stock solution (1 mM) was prepared by diluting 10 μL of 10 mM master stock solution with 90 μL of neat DMSO. A working stock solution (10 μM) was prepared by diluting 50 μL of 1 mM with 4950 μL of FaSSIF buffer. Post addition of compounds to the FaSSIF, samples were subjected to sonication for 2 hours, and centrifuged at 4000 RPM for 30 minutes at 37° C. The 4 mL of resultant supernatant was directly used in the assay. The final DMSO concentration in the transport experiments was 1%.
On the day of assay, Caco-2 monolayers were washed twice with transport buffer (HBSS, pH 7.4) and pre-incubated for 30 min (37° C., 5% CO2, 95% RH) in an incubator. The electrical resistance of the monolayers was measured with a Millicell®—ERS system. Monolayers with trans-epithelial electrical resistance (TEER) values greater than 350 ohm·cm^2 were selected for the assay.
The assay was conducted in absorptive direction (A2B) and secretory (B2A) directions. Transport experiments were initiated by addition of transport assay buffer (FaSSIF buffer prepared in HBSS) consisting of compounds to the donor compartment (apical chamber A-B; basolateral chamber B-A) in duplicate (n=2) wells. Drug free HBSS buffer (pH 7.4) containing 1% bovine serum albumin (BSA) was introduced to the receiver (A-B-basolateral; B-A-Apical) compartments. The volumes of apical and basolateral compartments were 0.4 and 0.8 mL, respectively. After adding dosing solution, plates were incubated in an incubator for 120 minutes at 37° C. After 120 minutes, donor and receiver samples were collected and matrix matched (1:1, 30 μL study sample+30 μL blank buffer) with the opposite buffer. Dosing samples matrix matched (1:1, 30 μL study sample+30 μL blank buffer) with the opposite buffer. Samples were processed by adding acetonitrile containing internal standard (60 μL study sample+200 μL acetonitrile containing internal standard—Tolbutamide, 500 ng/mL). Samples were vortexed and centrifuged at 4000 rpm for 10 minutes. The obtained supernatant (100 μL) was diluted with 100 μL of water and transferred to fresh 96 well plates. The concentration of compounds in the samples was analyzed by liquid chromatography tandem mass spectrometry (LC-MS/MS) method using discovery grade bio-analytical method, as applicable.
The mean apparent permeability (Papp, ×10^−6 cm/sec) of the test compounds, atenolol, propranolol and digoxin were calculated as follows:

In general, IC50 refers to the midpoint of a concentration-inhibition curve. The low end stands for higher potency, the high end for lower potency. For “(S)—(Z)-3-((3-butyl-7-(dimethylamino)-3-ethyl-1,1-dioxido-5-phenyl-2,3,4,5-tetrahydro-1,2,5-benzothiadiazepin-8-yl)oxy)-2-fluoroacrylic acid and (R)—(Z)-3-((3-butyl-7-(dimethylamino)-3-ethyl-1,1-dioxido-5-phenyl-2,3,4,5-tetrahydro-1,2,5-benzothiadiazepin-8-yl)oxy)-2-fluoroacrylic acid [Example 4]”, the IC50 came to 91 nM on hIBAT and 77 nM against hLBAT.
In general, Papp A→B refers to how fast a substance crosses the layer from the apical side. By Papp B→A is commonly meant the apparent permeability from the basolateral to the apical side of a cell layer. Consider `CCCCC1(CC)CN(c2ccccc2)c2cc(N(C)C)c(O/C=C(\F)C(=O)O)cc2S(=O)(=O)N1` (centres unmarked) [Example 2, (Z)-3-((3-butyl-7-(dimethylamino)-3-ethyl-1,1-dioxido-5-phenyl-2,3,4,5-tetrahydro-1,2,5-benzothiadiazepin-8-yl)oxy)-2-fluoroacrylic acid], for which 13 nM corresponded to half-maximal inhibition at hIBAT (IC50). In data set [1], the Papp A→B at 120 min, 10 µM was 1.4 ×10⁻⁶ cm/s and the basolateral-to-apical permeability (Papp B→A) at 120 min, 10 µM worked out at 2.4 ×10⁻⁶ cm/s. Also, the IC50 on hLBAT amounted to 124 nM.
For the compound `CCC[C@@]1(CC)CN(c2ccccc2)c2cc(SC)c(O/C=C(\F)C(=O)O)cc2S(=O)(=O)C1.CCC[C@]1(CC)CN(c2ccccc2)c2cc(SC)c(O/C=C(\F)C(=O)O)cc2S(=O)(=O)C1` (mixture of isomers) [Example 19, (S)—(Z)-3-((3-ethyl-7-(methylthio)-1,1-dioxido-5-phenyl-3-propyl-2,3,4,5-tetrahydro-1,5-benzothiazepin-8-yl)oxy)-2-fluoroacrylic acid and (R)—(Z)-3-((3-ethyl-7-(methylthio)-1,1-dioxido-5-phenyl-3-propyl-2,3,4,5-tetrahydro-1,5-benzothiazepin-8-yl)oxy)-2-fluoroacrylic acid], the IC50 against hIBAT was found to be 283 nM; on hLBAT, 5 nM.
Take `CCC[C@@]1(CC)CN(c2ccccc2)c2cc(SC)c(O/C=C(\F)C(=O)O)cc2S(=O)(=O)C1.CCC[C@]1(CC)CN(c2ccccc2)c2cc(SC)c(O/C=C(\F)C(=O)O)cc2S(=O)(=O)C1` (mixture of isomers) [Example 18, (S)—(Z)-3-((3-ethyl-7-(methylthio)-1,1-dioxido-5-phenyl-3-propyl-2,3,4,5-tetrahydro-1,5-benzothiazepin-8-yl)oxy)-2-fluoroacrylic acid and (R)—(Z)-3-((3-ethyl-7-(methylthio)-1,1-dioxido-5-phenyl-3-propyl-2,3,4,5-tetrahydro-1,5-benzothiazepin-8-yl)oxy)-2-fluoroacrylic acid]: the values for the IC50 on hIBAT and against hLBAT were 337 nM and 38 nM, respectively.
In the case of “(S)-(E)-3-((3-butyl-3-ethyl-5-(4-fluorophenyl)-7-(methylthio)-1,1-dioxido-2,3,4,5-tetrahydro-1,5-benzothiazepin-8-yl)oxy)acrylic acid and (R)-(E)-3-((3-butyl-3-ethyl-5-(4-fluorophenyl)-7-(methylthio)-1,1-dioxido-2,3,4,5 tetrahydro-1,5-benzothiazepin-8-yl)oxy)acrylic acid [Example 9]”, the IC50 turned out to be 151 nM at hIBAT and 150 nM against hLBAT.
The like results for “(S)—(Z)-3-((3-butyl-3-ethyl-5-(4-fluorophenyl)-7-(methylthio)-1,1-dioxido-2,3,4,5-tetrahydro-1,5-benzothiazepin-8-yl)oxy)-2-fluoroacrylic acid and (R)—(Z)-3-((3-butyl-3-ethyl-5-(4-fluorophenyl)-7-(methylthio)-1,1-dioxido-2,3,4,5-tetrahydro-1,5-benzothiazepin-8-yl)oxy)-2-fluoroacrylic acid [Example 6]” were, in that order, 66 nM and 12 nM.
The like results for `CCC1(C(C)C)CN(c2ccccc2)c2cc(SC)c(O/C=C/C(=O)O)cc2S(=O)(=O)C1` (centres unmarked) [Example 16, (E)-3-((3-ethyl-3-isopropyl-7-(methylthio)-1,1-dioxido-5-phenyl-2,3,4,5-tetrahydro-1,5-benzothiazepin-8-yl)oxy)acrylic acid] were, in that order, 565 nM and 218 nM.
As to `CCCCC1(CC)CN(c2ccc(F)cc2)c2cc(SC)c(O/C=C/C(=O)O)cc2S(=O)(=O)C1` (centres unmarked) [Example 8, (E)-3-((3-butyl-3-ethyl-5-(4-fluorophenyl)-7-(methylthio)-1,1-dioxido-2,3,4,5-tetrahydro-1,5-benzothiazepin-8-yl)oxy)acrylic acid], the IC50 at hIBAT is 7 nM; against hLBAT it was 118 nM.
As to `CCCC[C@@]1(CC)CN(c2ccccc2)c2cc(N(C)C)c(O/C=C/C(=O)O)cc2S(=O)(=O)N1.CCCC[C@]1(CC)CN(c2ccccc2)c2cc(N(C)C)c(O/C=C/C(=O)O)cc2S(=O)(=O)N1` (mixture of isomers) [Example 15, (S)-(E)-3-((3-butyl-7-(dimethylamino)-3-ethyl-1,1-dioxido-5-phenyl-2,3,4,5-tetrahydro-1,2,5-benzothiadiazepin-8-yl)oxy)acrylic acid and (R)-(E)-3-((3-butyl-7-(dimethylamino)-3-ethyl-1,1-dioxido-5-phenyl-2,3,4,5-tetrahydro-1,2,5-benzothiadiazepin-8-yl)oxy)acrylic acid], the IC50 on hIBAT was found to be 66 nM.
Regarding `CCC1(C(C)C)CN(c2ccccc2)c2cc(SC)c(O/C=C(\F)C(=O)O)cc2S(=O)(=O)C1` (centres unmarked) [Example 17, (Z)-3-((3-ethyl-3-isopropyl-7-(methylthio)-1,1-dioxido-5-phenyl-2,3,4,5-tetrahydro-1,5-benzothiazepin-8-yl)oxy)-2-fluoroacrylic acid], the IC50 on hIBAT worked out at 378 nM; at hLBAT it was 17 nM.
For `CCCC1(CC)CN(c2ccccc2)c2cc(SC)c(O/C=C/C(=O)O)cc2S(=O)(=O)C1` (centres unmarked) [Example 11, (E)-3-((3-ethyl-7-(methylthio)-1,1-dioxido-5-phenyl-3-propyl-2,3,4,5-tetrahydro-1,5-benzothiazepin-8-yl)oxy)acrylic acid], the results for the IC50 against hIBAT and on hLBAT were 260 nM and 97 nM, respectively.
